Experiment: gradient 5% acetonitrile 3 min, to 50% in 2 min, to 85% in 15 min, held 3 min, 100 µL/min
Details: column: Zorbax Extend-C18 2.1 x 50 mm; eluents: water / acetonitrile, 0.1% formic acid
Procedure, shortened: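 Data were gathered over 3 months by HPLC coupled to a quadrupole time-of-flight mass spectrometer, operated in positive and negative ionization mode. Mixtures of ~100 pure standards ran on a Zorbax Extend-C18 column (2.1 × 50 mm, 1.8 μm) at 100 μL/min, with water and acetonitrile each containing 0.1% formic acid and dead and dwell volumes of 40 μL and 900 μL. Retention time was read from adduct peaks picked by computer and checked manually.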

Row | RP-LC retention time [s] | SMILES
1 | 901 | O=C(CC1CCCCC1)N1CCN(c2ccc(=O)n(-c3ccc(F)cc3)n2)CC1
2 | 802 | CCCNC(=O)C1CCCN(c2nc3ncn(CC(=O)Nc4cccc(C(C)C)c4)c(=O)c3s2)C1 (stereo not drawn)
3 | 752 | Cc1nn(C2CCS(=O)(=O)C2)c(C)c1N1CCN(S(=O)(=O)c2cccs2)CC1 (stereo not drawn)
4 | 850 | CCc1nnc(-c2cccnc2N2CCN(C(=O)Nc3cc(F)cc(F)c3)CC2)o1
5 | 967 | CCOc1ccc(CCNc2nc(-c3ccc(OC)c(OC)c3)no2)cc1
6 | 718 | CCN1CCCCc2cc(C(=O)NCC3CCN(CC(C)C)C3)sc21 (stereo not drawn)
7 | 916 | O=C(NC1(c2nc(-c3cnccn3)no2)CCCCC1)c1cc2cc(Cl)ccc2[nH]1
8 | 1070 | COc1cccc(-c2nc(C3CCN(S(=O)(=O)c4ccccc4)CC3)no2)c1
9 | 626 | Cc1cnc(-c2ccncc2)n1C1CCN(C(=O)C2(C)CCCCC2)C1 (stereo not drawn)
10 | 880 | CCc1cccc(C)c1Nc1c(-c2ccc(C)cc2)nc2nc(C)cc(C)n12
11 | 653 | O=C(NCCCN1CCOCC1)C1CCCN(c2ncc(-c3cccc(F)c3)cn2)C1 (stereo not drawn)
12 | 635 | CCCC(=O)Nc1ccc(CCc2nc3ccc(C(=O)NCc4ccco4)cc3[nH]2)cc1
13 | 1060 | CC1CCN(S(=O)(=O)c2ccc(-c3nnc(C(=O)NCCc4cccs4)o3)cc2)CC1
14 | 713 | CCOC(=O)N1CCN(C(=O)CCc2csc(NC(=O)c3ccc(F)cc3)n2)CC1
15 | 719 | Cc1ccc(NC(=O)Nc2ccc3nnc(C)n3c2)cc1C
16 | 776 | Cc1nnc(-c2nnc(NCc3ccccc3)c3ccccc23)o1
17 | 874 | CCc1ccc(C2=C(C)C(N3CCCN(C(=O)CC(C)C)CC3)=NS2(=O)=O)cc1
18 | 664 | CNC(=O)C1CCCN(c2nc3ncn(CC(=O)NCc4ccccc4Cl)c(=O)c3s2)C1 (stereo not drawn)
19 | 728 | CCNC(=O)c1n[nH]c2c1CN(C(=O)c1ccc(OC(F)(F)F)cc1)CC2
20 | 1060 | Cc1nc(-c2cc(S(=O)(=O)Nc3cccc(F)c3)c(C)s2)sc1C
21 | 707 | CC(C(=O)NCCCN1CCCCC1)n1ccc2cc(S(=O)(=O)N3CCCCCC3)ccc21 (stereo not drawn)
22 | 632 | Cc1cc(=O)c(OCc2ccccc2F)cn1CC(=O)NCc1ccccc1Cl

Row | RP-LC retention time [s] | SMILES
23 | 746 | COc1ccc2nc(NC3=NCN(Cc4ccccc4)CN3)nc(C)c2c1
24 | 758 | Cn1c(=O)c2nc(S(=O)(=O)CCC(=O)Nc3ccc(F)cc3Cl)n(C)c2n(C)c1=O
25 | 869 | CCOC(=O)c1cc(S(=O)(=O)N2CCCC2C(=O)Nc2ccc3c(c2)OCCO3)cn1C (stereo not drawn)
26 | 707 | CCn1nc(N2CCCC(NC(=O)Cn3c(=O)oc4ccccc43)C2)ccc1=O (stereo not drawn)
27 | 661 | CCn1c(CCNC(=O)c2ccc(C)c(C)c2)nc2cccnc21
28 | 779 | CS(=O)(=O)N(C1CCOCC1)C1CCN(S(=O)(=O)Cc2ccccc2)CC1
29 | 894 | COc1ccc2c(c1)CC(C(=O)NCc1ccc(OC)cc1OC)CO2 (stereo not drawn)
30 | 688 | O=C(NC1CCN(Cc2ccccc2)CC1)c1cc2c(=O)n(Cc3ccccc3)ccc2s1
31 | 642 | Cc1cc(NC(=O)Nc2ccc3nc(N4CCN(C)CC4)cc(C)c3c2)ccc1Br
32 | 615 | CCN1CCN(CC2=C(C(=O)OC)C(c3ccccc3C)NC(=O)N2)CC1 (stereo not drawn)
33 | 541 | COc1cc(CN2CCC3(CC2)CC(O)CCO3)ccc1F (stereo not drawn)
34 | 677 | CC(C)C(NC(=O)c1ccco1)C(=O)NCc1nn(C)c2ccccc12 (stereo not drawn)
35 | 835 | CN(C(=O)c1c2c(cn(-c3ccccc3)c1=O)C(=O)CC(C)(C)C2)c1ccc(F)cc1
36 | 840 | Cn1cc(-c2cc3n(n2)CCCN3C(=O)CCC(=O)N2CCN(c3ccccc3)CC2)c2ccccc21
37 | 610 | O=C(Nc1ccc(NC(=O)c2ccncc2)cc1)c1ccncc1
38 | 1280 | O=C(COc1cc(O)c2c(=O)c3ccccc3oc2c1)c1ccc(Br)cc1
39 | 905 | CSc1nc2ccc3nc(NC(=O)C4=COCCO4)sc3c2s1
40 | 937 | O=C(Nc1ncc(Cc2ccc(F)cc2)s1)c1ccc([N+](=O)[O-])cc1
41 | 1020 | CS(=O)(=O)N1CCC(C(=O)NCCC2=CCCCC2)Oc2ccc(Cl)cc21 (stereo not drawn)
42 | 901 | COC(=O)c1cc(OCc2cccc(OC)c2)c2cc(OC)ccc2n1
43 | 739 | Cc1ccc(NC(=O)Nc2cccc(-c3ccc(N4CCOCC4)nn3)c2)cc1F
44 | 775 | CCNc1cc(C)nc(N2CCN(C(=O)c3cccc(Br)c3)CC2)n1

Row | RP-LC retention time [s] | SMILES
45 | 805 | CC1(C(=O)NCc2ccc(F)cc2)CN(S(C)(=O)=O)CC(=O)N1c1cccc(Cl)c1 (stereo not drawn)
46 | 633 | COc1ccc(NC(=O)N2CCC(n3cnc4cccnc43)CC2)c(OC)c1
47 | 707 | C=CCNC(=O)C1CCCN(C(=O)Nc2ccc(NC(=O)Nc3ccccc3)cc2)C1 (stereo not drawn)
48 | 773 | COC(=O)C1C(=O)C2=C(CC1C)NC(=O)CC2c1cccc(Cl)c1 (stereo not drawn)
49 | 819 | Cc1cccc(NC(=O)Cn2nc(C(=O)N3CCOCC3)c3ccccc32)c1C
50 | 1000 | COc1ccc(CCS(=O)(=O)N(Cc2ccsc2)C2CC2)cc1
51 | 645 | COCCNc1c(C(=O)OC)c(=O)[nH]c2c(Cl)cccc12
52 | 1200 | Cc1ccc(-c2nnc(-c3ccccc3)o2)cc1S(=O)(=O)N1CCCCCC1
53 | 578 | O=C(COc1ccccc1F)N1CC(c2nc3ccccc3[nH]2)C1
54 | 839 | O=C(N[C@H]1C[C@@H]2C[C@H]1N(C(=O)c1cccc(C(F)(F)F)c1)C2)c1cccs1
55 | 734 | O=C(c1ccc(-n2cnnn2)cc1)N1CCCc2ccccc21
56 | 628 | Cc1cc(C)cc(C(=O)NCc2ccc(N3CCOCC3)nc2)c1
57 | 606 | COc1ccc(N2CCN(C(=O)CCC(=O)N3CCCn4nc(C)cc43)CC2)cc1
58 | 681 | O=C(Nc1cc(F)ccc1F)NC1CCN(c2cc(N3CCCC3)cnn2)C1 (stereo not drawn)
59 | 741 | Cc1ccc(CNC(=O)c2cc3n(n2)CC(C)(C(=O)NCc2ccc(F)cc2)N(C)C3=O)cc1 (stereo not drawn)
60 | 864 | CCCN(CCC)C(=O)C1COC2(CCCCC2)N1C(=O)c1c(OC)cccc1OC (stereo not drawn)
61 | 924 | CCSc1nc2c(s1)c(=O)n(-c1ccccc1)c(=O)n2CC(=O)NCc1ccccc1
62 | 706 | COc1ccc(CNC(=O)Nc2ccc(CC(=O)NCC(F)(F)F)cc2)cc1
63 | 725 | Cc1ccccc1NS(=O)(=O)c1ccc2c(c1)CCCC(=O)N2
64 | 662 | O=C1CN(c2ncnc3[nH]ncc23)CC(=O)N1CCc1ccccc1
65 | 842 | O=C(NCc1ccc(F)c(Cl)c1)C1CCN(C(=O)c2ncn3c2COC(c2ccccc2)C3)CC1 (stereo not drawn)
66 | 1010 | O=C(Nc1cccc(Cl)c1)c1ccccn1

Row | RP-LC retention time [s] | SMILES
67 | 929 | Cc1ccc(Cn2c(=O)c(N3CCC(NC(=O)NCC4CCCO4)CC3)nc3cccnc32)cc1 (stereo not drawn)
68 | 650 | Cc1ccc2nc(C(=O)N3CCN(c4ccc(F)cc4)CC3)cn2c1
69 | 717 | Cc1cccc(Nc2c(-c3ccc(N4CCOCC4)cc3)nc3ncccn23)c1
70 | 652 | COC(=O)c1cnc2nc(C)ccc2c1Nc1ccc2c(c1)OCCO2
71 | 703 | CCc1ccc2c(c1)-c1ccccc1S(=O)(=O)N2CC(=O)NCc1ccncc1
72 | 805 | COC(=O)c1ccc(NC(=O)CSc2ccc(NC(=O)c3ccccc3F)nn2)cc1
73 | 1100 | CCc1nc(-c2csc(S(=O)(=O)N3CCCC(C(=O)Nc4ccc(Cl)cc4)C3)c2)no1 (stereo not drawn)
74 | 887 | COC(=O)c1ccc(N2C=C(C#N)S(=O)(=O)c3ccc(C)cc32)cc1
75 | 1140 | COc1ccccc1/C=C1\Cc2ccccc2C1=O
76 | 606 | COc1nccnc1N1CCC(NC(=O)CCc2c(C)noc2C)C1 (stereo not drawn)
77 | 682 | Cc1ccc(NC(=O)N2CCC(n3cnc4cccnc43)CC2)cc1F
78 | 630 | CS(=O)(=O)N1CCC(N2C[C@H](Oc3ccccc3)[C@@H]2c2ccncc2)CC1
79 | 723 | CCCn1ncc(N2CCC(C(=O)Nc3ccc(OC)cc3OC)CC2)cc1=O
80 | 823 | Cc1cc(C(=O)Nc2ccc(-c3nc(Cn4cccn4)c(C)o3)cc2)no1
81 | 954 | CSc1ccc(-c2nc3ccc(Cl)cn3c2Nc2ccccc2C)cc1
82 | 606 | O=C(O)CCn1nnc2ccccc2c1=O
83 | 641 | CCCNS(=O)(=O)c1cc2c(cc1C)CCN2C(C)=O
84 | 697 | O=C(CCc1c(-c2ccc(F)cc2)nc2ccccn12)Nc1cc(F)ccc1F
85 | 1110 | Cc1ccc(C)c(N2CCN(c3cc(C(=O)O)c4cc(NS(C)(=O)=O)ccc4n3)CC2)c1
86 | 623 | O=C(Nc1ccc(F)cc1)c1nnc(COCC(=O)N2CCN(c3ccccn3)CC2)s1
87 | 763 | Cc1ccc(C)c(NC(=O)CCc2nc(N3CCOCC3)c3c(C)noc3n2)c1

Row | SMILES | RP-LC retention time [s]
88 | O=C(Nc1ccccc1F)N1C[C@H]2C[C@@H](C1)c1cccc(=O)n1C2 | 610
